Experimental data taken from US7419790B2, “Sodium-independent transporter carrying acidic amino acid and its gene” (J-Pharma Co., Ltd, priority 2002, dated 2008).

B1: AGT1-rBAT fusion protein (Mus musculus) (protein)
chain: MAMDSKKEIRLKRELGYFWGTNFLIINIIGAGIFVSPKGVLQHSSMNVGVSLCVWAVCAVLTLTSALCSAEIGITFPYSGAHYYFLKRCFGPLVAFLRLWTSLFLGPGLIASQALLLAEYGVQPFYPSCSAPILPRKCLALAMLWIVGILNSRGVKELSWLQTVSSVLKVGILGVISLSGLFLLVRGKKENVQRLQNAFDAEFPEVSQLIEAIFQGYFAFSGGGCFTCIAGELKKPSKTIPRCIFTGLPLVTVVYLLANISYLTVLTPQEMLSSDAVALTWTDRVIPQFTWTVPFAISASLFINLVINVLETSRVLYIASENGQLPLLFCALNVHSSPFIAVLLIISMASILIVLTNLIDLINYLYFVVSIWTALSIIGILKLRYQEPNLHRPYKVFLPFTFIALGITLSLVLIPLVKSPKLHYIYVFLFLLSGLVFYVPLIHFKVKFVWFQKLTCYLQLLFNICIPDVSDDHIHEESAAADEDKGKRDPIQMSLKGCRTNNGFVQNEDIPEQDPDPGSRDTPQPNAVSIPAPEEPHLKAVRPYAGMPKEVLFQFSGQARYRVPREILFWLTVVSVFLLIGATIAIIVISPKCLDWWQAGPIYQIYPRSFKDSDKDGNGDLKGIQEKLDYITALNIKTLWITSFYKSSLKDFRYAVEDFKEIDPIFGTMKDFENLVAAIHDKGLKLIIDFIPNHTSDKHPWFQSSRTRSGKYTDYYIWHNCTHVNGVTTPPNNWLSVYGNSSWHFDEVRKQCYFHQFLKEQPDLNFRNPAVQEEIKEIITFWLSKGVDGFSFDAVKFLLEAKDLRNEIQVNTSQIPDTVTHYSELYHDFTTTQVGMHDIVRDFRQTMNQYSREPGRYRFMGAEASAESIERTMMYYGLPFIQEADFPFNKYFTTIGTLSGHTVYEVITSWMENMPEGKWPNWMTGGPETPRLTSRVGSEYVNAMHMLLFTLPGTPITYYGEEIGMGDISVTNFNESYDSTTLVSKSPMQWDNSSNAGFTEANHTWLPTNSDYHTVNVDVQKTQPSSALRLYQDLSLLHATELVLSRGWFCLLRDDSHSVVYTRELDGIDNVFLVVLNFGESSTVLNLQGIISDLPPELRIRLSTNSASKGSAVDTRAISLEKGEGLVLEHSTKAPLHQQAAFRDRCFVSSRACYSSALDILYSSC

Legend:
[1] = target: T1, AGT1-4F2hc fusion protein (Mus musculus, UniProt P10852+Q91WN3); experiment: Inhibition of 14C-aspartic acid uptake by added amino acids and analogues, oocytes expressing AGT1-4F2hc; type: cell-based; conditions: 2 mM non-labeled compound, 14C-aspartic acid 20 μM, sodium-free uptake solution
T1 sequence (Q91WN3+P10852 with tags, fused parts or gaps): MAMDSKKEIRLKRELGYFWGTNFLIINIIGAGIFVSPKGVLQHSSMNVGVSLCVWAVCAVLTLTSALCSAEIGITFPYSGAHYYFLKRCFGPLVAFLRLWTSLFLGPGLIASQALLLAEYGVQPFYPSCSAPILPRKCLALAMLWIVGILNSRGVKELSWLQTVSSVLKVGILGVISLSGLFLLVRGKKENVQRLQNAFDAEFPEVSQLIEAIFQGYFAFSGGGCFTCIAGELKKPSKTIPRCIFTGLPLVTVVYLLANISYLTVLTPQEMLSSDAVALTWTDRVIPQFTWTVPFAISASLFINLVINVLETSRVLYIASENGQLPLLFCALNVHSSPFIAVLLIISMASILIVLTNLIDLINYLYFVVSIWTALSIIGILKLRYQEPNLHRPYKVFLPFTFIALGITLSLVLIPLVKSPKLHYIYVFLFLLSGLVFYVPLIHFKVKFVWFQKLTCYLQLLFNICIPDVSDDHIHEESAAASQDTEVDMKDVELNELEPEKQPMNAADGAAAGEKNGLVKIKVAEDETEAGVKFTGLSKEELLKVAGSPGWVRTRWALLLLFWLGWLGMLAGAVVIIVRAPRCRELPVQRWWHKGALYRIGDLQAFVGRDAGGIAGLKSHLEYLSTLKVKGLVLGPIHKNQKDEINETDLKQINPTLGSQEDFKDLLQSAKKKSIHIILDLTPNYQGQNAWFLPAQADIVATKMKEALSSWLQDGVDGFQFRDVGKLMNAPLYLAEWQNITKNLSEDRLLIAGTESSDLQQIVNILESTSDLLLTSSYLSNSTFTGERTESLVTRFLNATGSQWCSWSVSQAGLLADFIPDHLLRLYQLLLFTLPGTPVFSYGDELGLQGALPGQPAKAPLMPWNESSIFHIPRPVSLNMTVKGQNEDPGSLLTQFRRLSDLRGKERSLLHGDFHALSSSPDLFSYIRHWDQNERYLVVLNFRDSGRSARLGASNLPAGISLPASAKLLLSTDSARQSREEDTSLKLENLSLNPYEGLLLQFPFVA
Method: However, a sodium-free uptake solution was used and the uptake ^14C-aspartic acid (20 μM) was measured in the presence and absence of 2 mM of various compounds (non-labeled).

[2] = target: T2, AGT1-rBAT fusion protein (Mus musculus, UniProt Q91WN3+Q91WV7); experiment: Uptake of 14C-aspartic acid by oocytes expressing AGT1-rBAT; type: cell-based; conditions: oocyte injected with AGT1-rBAT cRNA; 14C-aspartic acid 20 μM, 30 minutes, compared with water-injected control
T2 construct: expressed in transfected cells; host or cells: oocyte injected with AGT1-rBAT fusion protein gene cRNA
T2 sequence (Q91WN3+Q91WV7 with tags, fused parts or gaps): B1 chain

[3] = target: T1, AGT1-4F2hc fusion protein; experiment: Michaelis-Menten kinetic analysis of substrate uptake by oocytes expressing AGT1-4F2hc; conditions: AGT1-4F2hc in oocytes; ratio to Vmax value of L-aspartic acid; mean value ± standard error
Method: (§1) The oocyte were allowed to stand for 30 minutes in a sodium-free uptake solution (100 mM choline chloride, 2 mM potassium chloride, 1.8 mM calcium chloride, 1 mM magnesium chloride and 5 mM HEPES; pH 7.4) containing ^14 C-aspartic acid (20 μM) as a substrate and an uptake rate of the substrate was measured by the count of radioactivity incorporated into the cells.
(§2) The Michaelis-Menten kinetic analysis was conducted by investigating the change in the ratio of uptake of aspartic acid by the difference in the substrate aspartic acid concentration.
(§3) The aspartic acid uptake experiment was carried according to the method mentioned in the above Example 2(2) using the oocyte into which a cRNA of a gene of a fusion protein of AGT1 with 4F2hc or with rBAT (AGT1-4F2hc or AGT1-rBAT) was injected.
(§4) The Michaelis-Menten kinetic analysis was similarly carried out in a fusion protein of AGT1 with 4F2hc (AGT1-4F2hc) in glutamic acid and Km value and Vmax value were calculated.

[4] = target: T1, AGT1-4F2hc fusion protein; experiment: Uptake of radio-labeled amino acids by oocytes expressing AGT1-4F2hc; type: cell-based; conditions: oocyte injected with AGT1-4F2hc cRNA, 14C compound as substrate
Source text: With regard to a substrate, various compounds which were labeled with radioactivity were used instead of ^14C-aspartic acid.

[5] = tested on: N[C@@H](CCC(=O)O)C(=O)O; experiment: cells, lysate or membranes; conditions: other: substrate transport by AGT1-4F2hc in Xenopus oocytes, sodium-free uptake solution; mean value ± standard error; pH 7.4
Method: as §1, §2, §3, §4

[6] = substrate: N[C@@H](CC(=O)O)C(=O)O; experiment: cells, lysate or membranes; conditions: other: AGT1-rBAT in Xenopus oocytes; pH 7.4

| Molecule | effect on uptake of 14C-aspartic acid mediated by AGT1-4F2hc (cis-inhibition) [1] | also measured |
| --- | --- | --- |
| O=C(O)[C@@H]1CN[C@@H](C(=O)O)C1 (relative stereo) [L-trans-pyrrolidine-2,4-dicarboxylate] | no inhibition effect |  |
| NC1(C(=O)O)CC2CCC1C2 (stereo not drawn) [2-amino-2-norbornane-carboxylic acid] | did no affect |  |
| N[C@H](CC(=O)O)C(=O)O [D-aspartic acid] | did no affect |  |
| N[C@H](CCC(=O)O)C(=O)O [D-glutamic acid] | did no affect |  |
| N[C@@H](CC(=O)O)C(=O)O [L-Aspartic acid] | significant cis-inhibiting effect | uptake of aspartic acid into the oocyte [2]: higher uptake; Vmax [3]: (1.00); uptake of radio-labeled substrate into the oocyte ([4]; listed as L-aspartic acid): substantial uptake; uptake of radio-labeled substrate into the oocyte ([4]; listed as aspartic acid): higher uptake |
| N[C@@H](CCC(=O)O)C(=O)O [L-Glutamic acid] | significant cis-inhibiting effect | Vmax [3]: 0.63 ± 0.10; uptake of radio-labeled substrate into the oocyte [4]: substantial uptake |
| N[C@@H](CS(=O)(=O)O)C(=O)O [L-cysteate] | strongly inhibited |  |
| N[C@@H](CS)C(=O)O.O=S(=O)(O)O [L-cysteine sulfate] | strongly inhibited |  |
| N[C@@H](CCS(=O)(=O)O)C(=O)O [L-homocysteate] | no inhibition effect |  |
| N[C@@H](COS(=O)(=O)O)C(=O)O [L-serine-O-sulfate] | strongly inhibited |  |
| N[C@@H](CCCC(=O)O)C(=O)O [L-α-aminoadipate] | no inhibition effect |  |
| N[C@@H](CS)C(=O)O [cysteine] | significant cis-inhibiting effect |  |
| N[C@@H](CSSC[C@H](N)C(=O)O)C(=O)O [cystine] | did no affect |  |
| CC(C)[C@H]1CN[C@H](C(=O)O)[C@H]1CC(=O)O [dihydrokainate] | no inhibition effect |  |
| NC(C(=O)O)C(O)C(=O)O (stereo not drawn) [threo-β-hydroxyaspartate] | strongly inhibited |  |
| AGT1-4F2hc fusion protein (Mus musculus) |  | Km [5]: 21.8 ± 6.5 µM |
| γ-aminoisobutyric acid | did no affect |  |
| B1 |  | Km [6]: 20.1 ± 6.1 µM |
